Laboratory results taken from patent US9981940B2, “Aryl sulfide derivatives and aryl sulfoxide derivatives as acaricides and insecticides” (BAYER CROPSCIENCE AKTIENGESELLSCHAFT, priority 2013, dated 2018).

How the values were obtained:
[1] = tested on: Boophilus microplus; assay: Boophilus microplus injection test (BOOPMI Inj); format: in vivo; conditions: application rate of 20 μg/animal, assessed after 7 days by laying of fertile eggs
How it was run: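 Engorged adult female ticks (5 per test) injected in the abdomen with 1 μl of compound solution in DMSO, then held in a climate-controlled room. Efficacy scored after 7 days from fertile egg laying, with 100% meaning no fertile eggs and 0% all eggs fertile.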

[2] = tested on: Phaedon cochleariae; assay: Phaedon cochleariae spray test (PHAECO); format: in vivo; conditions: application rate of 500 g/ha, after 7 days
Experimental: Phaedon cochleariae—Spray Test (PHAECO)
• Solvent: 78.0 parts by weight of acetone • 1.5 parts by weight of dimethylformamide • Emulsifier: 0.5 part by weight of alkylaryl polyglycol ether
(§1) To produce an appropriate active ingredient formulation, 1 part by weight of active ingredient is mixed with the specified amounts of solvent and emulsifier, and the concentrate is diluted to the desired concentration with emulsifier-containing water.
Discs of Chinese cabbage leaves (Brassica pekinensis) are sprayed with an active ingredient formulation of the desired concentration and, after drying, populated with larvae of the mustard beetle (Phaedon cochleariae).
After 7 days, the efficacy in % is determined 100% means that all beetle larvae have been killed; 0% means that none of the beetle larvae have been killed.

[3] = tested on: Tetranychus urticae; assay: Tetranychus urticae spray test, OP-resistant (TETRUR); format: in vivo; conditions: application rate of 500 g/ha, after 6 days; for pest or weed control at 500 g/ha: Tetranychus urticae, 144 h, read-out: efficacy
How it was run: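 Mortality as % efficacy (0% = no mites killed) read 6 days after spraying. Formulation: active ingredient in acetone/dimethylformamide plus emulsifier, diluted with emulsifier-containing water, applied to Phaseolus vulgaris leaf discs carrying every life stage of OP-resistant spider mites.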

[4] = tested on: Meloidogyne incognita; assay: Meloidogyne incognita test (MELGIN); format: in vivo; conditions: application rate of 20 ppm; after 14 days, by formation of galls
Experimental: Meloidogyne Incognita Test (MELGIN)
• Solvent: 125.0 parts by weight of acetone
To produce an appropriate active ingredient formulation, 1 part by weight of active ingredient is mixed with the specified amounts of solvent and the concentrate is diluted to the desired concentration with water.
Vessels are filled with sand, active ingredient solution, an egg/larvae suspension of the southern root-knot nematode (Meloidogyne incognita) and lettuce seeds. The lettuce seeds germinate and the plants develop. The galls develop on the roots
After 14 days, the nematicidal efficacy in % is determined by the formation of galls. 100% means that no galls have been found; 0% means that the number of galls on the treated plants corresponds to the untreated control.

[5] = log P by HPLC (OECD Guideline 117), method [a] acidic range; format: physicochemical; conditions: for logP[a]: HPLC, method [a] acidic range; for chromatographic logP: reversed-phase C18 HPLC column, acidic range
Experimental: (§2) The log P values were determined analogously to OECD Guideline 117 (EC Directive 92/69/EEC) by HPLC (high-performance liquid chromatography) using reversed-phase columns (C 18), by the following methods:
[a] The LC-MS determination in the acidic range is effected at pH 2.7 with 0.1% aqueous formic acid and acetonitrile (contains 0.1% formic acid) as eluents; linear gradient from 10% acetonitrile to 95% acetonitrile.

[6] = log P by HPLC (OECD Guideline 117), method [b] neutral range; format: physicochemical; conditions: HPLC; for logP[b]: method [b] neutral range; for chromatographic logP: reversed-phase C18 HPLC column, neutral range, pH 7.8
Experimental: as §2
[b] The LC-MS determination in the neutral range is effected at pH 7.8 with 0.001 molar aqueous ammonium hydrogencarbonate solution and acetonitrile as eluents; linear gradient from 10% acetonitrile to 95% acetonitrile.

[7] = tested on: Myzus persicae; assay: Myzus persicae spray test (MYZUPE); format: in vivo; conditions: application rate of 500 g/ha; after 6 days
Experimental: Myzus persicae—Spray Test (MYZUPE)
• Solvent: 78 parts by weight of acetone • 1.5 parts by weight of dimethylformamide • Emulsifier: 0.5 part by weight of alkylaryl polyglycol ether
as §1
Discs of Chinese cabbage leaves (Brassica pekinensis) infested by all stages of the green peach aphid (Myzus persicae) are sprayed with an active ingredient formulation of the desired concentration.
After 6 days, the activity in % is determined 100% means that all the aphids have been killed; 0% means that none of the aphids have been killed.

[8] = tested on: Lucilia cuprina; assay: Lucilia cuprina test (LUCICU); format: in vivo; conditions: application rate of 100 ppm; L1 larvae; after 2 days
Experimental: Lucilia cuprina Test (LUCICU)
• Solvent: dimethyl sulphoxide
To prepare an appropriate active ingredient formulation, 10 mg of active ingredient are mixed with 0.5 ml of dimethyl sulphoxide, and the concentrate is diluted with water to the desired concentration.
About 20 L1 larvae of the Australian sheep blowfly (Lucilia cuprina) are transferred into a test vessel containing minced horsemeat and the active ingredient preparation of the desired concentration.
After 2 days, the kill in % is determined 100% means that all the larvae have been killed; 0% means that none of the larvae have been killed.

[9] = pH 2.7, HPLC method [a], read-out: logP[a]
[10] = pH 2.7, HPLC, pH 2.7, read-out: log P[a]

| logP[a] [5] | logP[b] [6] | chromatographic logP [5, 9] | chromatographic logP [5, 10] | chromatographic logP [6] | Structure (SMILES) | efficacy [1] [%] | efficacy [2] [%] | efficacy [3] [%] | nematicidal efficacy [4] [%] | efficacy [7] [%] | efficacy (kill) [8] [%] | pest or weed control at 500 g/ha [3] [%] | pest or weed control at 500 g/ha ([2]; Phaedon cochleariae, 168 h, read-out: efficacy) [%] |
| --- | --- | --- | --- | --- | --- | --- | --- | --- | --- | --- | --- | --- | --- |
| 2.65 | 2.61 | – | – | – | COc1nn(-c2cc([S+]([O-])CC(F)(F)F)c(Cl)cc2Cl)c(=O)n1C1CC1 (centres unmarked) [Example 106] | 100 | 100 | 100 | 90 | – | – | – | – |
| 2.45 | 2.43 | – | – | – | COC1=CC(=O)N(c2ccc(C#N)c(SCC(F)(F)F)c2)C1 [Example 320] | – | 100 | – | – | 90 | – | – | – |
| 2.45 | 2.43 | – | – | – | COc1nn(-c2cc([S+]([O-])CC(F)(F)F)c(Cl)cc2F)c(=O)n1C1CC1 (centres unmarked) [Example 115] | 100 | – | 100 | 90 | – | – | – | – |
| 2.34 | 2.37 | – | – | – | C=CCn1c([S+]([O-])CCC)nn(-c2cc([S+]([O-])CC(F)(F)F)c(C)cc2F)c1=O (centres unmarked) [Example 423] | 100 | – | 90 | – | 90 | – | – | – |
| 2.52 | 2.38 | – | – | – | Cc1cc(F)c(-n2nc(OCC(F)(F)F)n(C)c2=O)cc1[S+]([O-])CC(F)(F)F (centres unmarked) [Example 160] | 100 | – | 100 | 100 | – | – | – | – |
| – | – | 2.82 | 2.82 | 2.97 | Cc1cc(F)c(-n2ncn(C(C)C)c2=O)cc1SCC(F)(F)F [Example 4, 2-{2-Fluoro-4-methyl-5-[(2,2,2-trifluoroethyl)sulphanyl]phenyl}-4-isopropyl-2,4-dihydro-3H-1,2,4-triazol-3-one] | – | – | – | 90 | – | 80 | 90 | – |
| 2.57 | 2.51 | – | – | – | Cc1cc(F)c(-n2nnn(CC(F)(F)F)c2=O)cc1[S+]([O-])CC(F)(F)F (racemic) [Example 305] | 100 | – | 100 | 100 | – | – | – | – |
| 4.36 | 4.30 | – | – | – | CCC(C)Oc1nn(-c2cc(SCC(F)(F)F)c(C)cc2F)c(=O)n1C1CC1 (centres unmarked) [Example 140] | – | – | 100 | 90 | – | – | – | – |
| 2.97 | 2.91 | – | – | – | Cc1cc(F)c(-n2nc(-c3ccc(Cl)cc3F)n(C)c2=O)cc1[S+]([O-])CC(F)(F)F (centres unmarked) [Example 39] | – | – | 90 | 90 | – | – | – | – |
| 3.16 | 3.11 | – | – | – | COc1nn(-c2cc(SCC(F)(F)F)c(C)cc2F)c(=O)n1C1CC1 [Example 105] | 100 | – | 100 | 90 | – | – | – | – |
| – | – | 1.83 | 1.83 | 1.84 | COC1=CC(=O)N(c2cc([S+]([O-])CC(F)(F)F)c(C)cc2F)C1 (centres unmarked) [Example 311, 1-{2-Fluoro-4-methyl-5-[(2,2,2-trifluoroethyl)sulphinyl]phenyl}-4-methoxy-1,5-dihydro-2H-pyrrol-2-one] | 100 | – | – | – | 90 | – | 100 | 100 |
| 3.20 | 3.30 | – | – | – | COc1nn(-c2cc(SCC(F)(F)F)c(C)cc2Cl)c(=O)n1C1CC1 [Example 116] | 100 | – | 90 | 100 | – | – | – | – |
| 3.64 | 3.58 | – | – | – | Cc1cc(F)c(N2CC(OCC3CC3)=CC2=O)cc1SCC(F)(F)F [Example 331] | – | 83 | 90 | 90 | – | – | – | – |
| 4.06 | 3.96 | – | – | – | Cc1cc(F)c(-n2nc(-c3ccc(Cl)cc3F)n(C)c2=O)cc1SCC(F)(F)F [Example 40] | – | – | 100 | 100 | – | – | – | – |
| 3.61 | 3.48 | – | – | – | Cc1cc(F)c(-n2nnn(CC(F)(F)F)c2=O)cc1SCC(F)(F)F [Example 304] | – | – | 100 | 100 | – | – | – | – |
| 2.54 | 2.52 | – | – | – | COc1nn(-c2ccc(Cl)c([S+]([O-])CC(F)(F)F)c2)c(=O)n1C (centres unmarked) [Example 99] | 100 | – | 90 | 90 | – | – | – | – |
| 2.55 | 2.50 | – | – | – | Cc1cc(F)c(N2CC(OCC3CC3)=CC2=O)cc1[S+]([O-])CC(F)(F)F (centres unmarked) [Example 332] | – | 83 | 90 | 90 | – | – | – | – |
| 2.83 | 2.77 | – | – | – | Cc1cc(F)c(-n2nc(OCC(F)(F)F)n(C3CC3)c2=O)cc1[S+]([O-])CC(F)(F)F (centres unmarked) [Example 102] | 100 | – | 100 | 100 | – | – | – | – |
| 2.90 | 2.85 | – | – | – | CCCCOc1nn(-c2cc([S+]([O-])CC(F)(F)F)c(C)cc2F)c(=O)n1C (centres unmarked) [Example 146] | – | – | 100 | 90 | – | – | – | – |
| 2.28 | 2.30 | – | – | – | COc1nn(-c2cc([S+]([O-])CC(F)(F)F)c(C)cc2Cl)c(=O)n1C1CC1 (centres unmarked) [Example 117] | 100 | – | 90 | 100 | – | – | – | – |
| 2.48 | 2.45 | – | – | – | COc1nn(-c2cc([S+]([O-])CC(F)(F)F)c(C)cc2F)c(=O)n1CC(F)(F)F (centres unmarked) [Example 415] | 100 | – | 90 | 100 | – | – | – | – |
| 2.62 | 2.59 | – | – | – | Cc1cc(F)c(-n2ncn(C3CC3)c2=O)cc1SCC(F)(F)F [Example 61] | – | – | 100 | 100 | – | – | – | – |
| 3.80 | 3.72 | – | – | – | Cc1cc(F)c(-n2nc(OCC(F)(F)F)n(C3CC3)c2=O)cc1SCC(F)(F)F [Example 103] | 100 | – | 100 | 100 | – | – | – | – |
| 3.69 | 3.65 | – | – | – | CCc1nn(-c2cc(SCC(F)(F)F)c(C)cc2F)c(=S)n1C1CC1 [Example 502] | – | 83 | 90 | 90 | – | – | – | – |

| Structure (SMILES) | logP[a] [5] | logP[b] [6] | chromatographic logP [5, 9] | chromatographic logP [5, 10] | chromatographic logP [6] | efficacy [1] [%] | efficacy [2] [%] | efficacy [3] [%] | nematicidal efficacy [4] [%] | efficacy [7] [%] | efficacy (kill) [8] [%] | pest or weed control at 500 g/ha [3] [%] | pest or weed control at 500 g/ha ([2]; Phaedon cochleariae, 168 h, read-out: efficacy) [%] |
| --- | --- | --- | --- | --- | --- | --- | --- | --- | --- | --- | --- | --- | --- |
| COc1nn(-c2cc([S+]([O-])CC(F)(F)F)c(C)cc2F)c(=O)n1C1CC1 (centres unmarked) [Example 104] | 2.13 | 2.08 | – | – | – | 100 | – | 100 | 90 | – | – | – | – |
